Measured values reported in patent US9365534B2, “Arylated camphenes, processes for their preparation and uses thereof” (Yissum Research Development Company of the Hebrew …, priority 2009, dated 2016).
Like-named read-outs stand apart in the source and are kept apart here.

Experiments:
human CB1 receptor [1] = target: T1, human CB1 receptor (Homo sapiens (Human), UniProt P21554); test: Membrane competition binding assay with [3H]-CP 55,940, CHO-CB1 membranes
Text: (§1) The cDNA clones for human HA-tagged CB1 and CB2 receptors were obtained from the Missouri S&T cDNA Resource Center (www.cdna.org) in cloning vector pcDNA3.1+. The vector containing the human CB2 receptor was transfected directly into CHO-KI cells obtained from ATCC. The HA-tagged human CB1 receptor sequence was subcloned into the pef4-V5-HisA vector with Kpn1 and Pme1 restriction enzymes and subsequently transfected into CHO-K1 cells. Cells were clonally isolated by limited dilution and screened by immunocytochemistry for expression of the HA tag.
(§2) Cells were maintained in DMEM/F12 media supplemented with 10% fetal bovine serum (FBS), 100 units/ml penicillin and 100 μg/ml streptomycin and 2 mM L-glutamine. Transfected cell lines were maintained with additional 150 ug/ml zeocin for pEF HA-CB1 transfected cells and 500 ug/ml G-418 for pcDNA HA-CB2 transfected cells (all reagents obtained from Invitrogen).
(§3) Cells were grown to confluence and harvested in ice cold phosphate buffered saline with 5 mM EDTA. Cells were spun at 200×g for 10 min and frozen at −80° C. until required. Cell pellets were thawed with cold 0.32 M sucrose and homogenised with a glass homogeniser. The homogenate was spun at 1000×g for 10 min at 4° C. and the supernatant spun in a Sorvall ultracentrifuge for 30 min at 100,000×g. The pellet was then washed in ice cold water and re-spun twice more. The final pellet was resuspended in 50 mM Tris pH 7.5, 0.5 mM EDTA. Protein concentration was determined using the Dc protein assay kit (BioRad, Hercules, Calif., USA).
(§4) Membranes (5-10 μg) were incubated with radioligand and a range of concentrations of test compounds in binding buffer (50 mM Tris pH 7.4, 5 mM MgCl2, 1 mM EDTA) with 0.5% (w/v) bovine serum albumin (BSA) (ICP Bio, New Zealand), at 30° C. for 60 min. Stock solutions of putative cannabinoid ligands were prepared in dimethyl sulfoxide to a concentration of 10 mM. Six different final concentrations of compounds were used ranging from 50 μM to 0.1 nM. […] Assays were terminated by addition of 2 ml ice cold binding buffer and filtration through GF/C filters (Whatman) pre-soaked in cold binding buffer, followed by two washes in the same buffer.
(§5) Radioactivity was determined by incubation of filters with Irgasafe scintillation fluid (PerkinElmer) and scintillation counting in a Wallac Trilux using Microbeta Trilux software. Data was analysed using the Prism 4.02 programme (GraphPad Software, San Deigo, Calif., USA).
(§6) All data was analyzed using Prism 4.02. For binding data the Ki was determined from IC50 values derived from competition binding data fitted with one site competition non-linear regression analysis by Prism 4.02 using the Kd values reported above.

human CB2 receptor [2] = target: T2, human CB2 receptor (Homo sapiens (Human), UniProt P34972); test: cell-based
Text: as §1, §2
(§7) Cells were seeded at a density of 10,000 cells per well in poly-L-lysine treated 96-well culture plates (BD Biosciences). The following day wells were incubated with 40 μl DMEM/F12 containing 0.5% (w/v) BSA and 0.5 mM 3-isobutyl-1-methylxanthine (Sigma-Aldrich) for 30 minutes prior to 15 min stimulation with 50 μM forskolin (Tocris Cookson) and varying concentrations of indicated compounds at 37° C., 5% CO2. Assays were stopped by removal of media and addition of 100% ice cold ethanol. Plates were then frozen for a minimum of two hours before complete evaporation of ethanol. The well contents were then reconstituted in 50 μl cAMP assay buffer (20 mM HEPES pH 7.5 and 5 mM EDTA). Half of the reconstituted sample was transferred to round bottom 96-well plates (Greiner Bio-One GmbH) with 50 μl 0.01% w/v PKA (cAMP dependent protein kinase (Sigma-Aldrich) in 1 mM Na citrate pH 6.5 with 2 mM dithiothreitol) and 25 μl [^3H]-cAMP (at 22 nM in cAMP assay buffer) (GE Healthcare, Life Sciences). This was allowed to equilibrate for 3-18 hours. Following this a charcoal slurry (5% (w/v) activated charcoal and 0.2% (w/v) BSA in cAMP assay buffer) was added to the samples and the plates centrifuged at 3000×g, 4° C. for 5 min. Radioactive counts within the supernatant were then determined as described for competition binding assays.
(§8) pIC50 values were determined from cAMP assays by fitting a sigmoidal concentration response curve using Prism 4.02.

human CB1 receptor [3] = target: T1, human CB1 receptor; test: cell-based
Text: as §1, §2, §7, §8

human CB2 receptor [4] = target: T2, human CB2 receptor; test: Membrane [35S]GTPγS binding assay; assay type: biochemical; conditions: for Emax: read-out: [35S]GTPγS Emax
Description: Human CB2 expressing CHO-K1 membranes (5 μg per incubation mixture) were diluted in 50 mM Tris-HCl (pH 7.5) and 0.5 mM EDTA and added to HU compounds in a pre-mixed incubation cocktail. Final incubation concentrations were 55 mM Tris-HCl (pH 7.4), 1 mM EDTA, 100 mM NaCl, 5 mM MgCl2, 0.5% BSA, 50 μM GDP, 0.2 nM [^35S]GTPγS (PerkinElmer) with varied HU compound concentration and 5 μg membrane. Incubations were continued for 60 minutes at 30° C. in a shaking water bath. Assays were terminated by addition of 2 ml ice cold wash buffer (50 mM Tris-HCl, pH 7.5 and 5 mM MgCl2) and filtration through pre-soaked GF/C filters (Whatman), followed by two further washes. adioactivity was determined as described for competition binding assays.
Data was analyzed using the Prism 4.02 programme (GraphPad Software, San Deigo, Calif., USA). IC50 and EC50 values, as determined from sigmoidal curves, were generated from drug concentrations plotted in log scale. […] It is possible to display data as an average, plus or minus the standard error of the mean in log form, however, this is not easily interpreted or compared to other values. It was therefore elected to calculate the 95% confidence interval for the mean value in log form and then convert the lower limit, mean and upper limit into the molar (linear) scale. […] Two-tailed t-tests for statistical analysis between enantiomeric pairs of compounds were performed for CB2 Ki values. The Pearson value, an indication of linearity, was determined for Ki and IC50 or EC50 results obtained for CB2 receptors in binding, cAMP or GTPγS experiments, respectively.

human CB2 receptor [5] = target: T2, human CB2 receptor; test: Membrane competition binding assay with [3H]-CP 55,940, CHO-CB2 membranes
Text: as §1, §2, §3, §4, §5, §6

[6] = CHO, read-out: cAMP Assay CB2 Receptor Emax
[7] = CHO-CB2 cellular membranes, 2.5 nM [3H]-CP 55,940
[8] = CHO-CB1 cellular membranes, 2.5 nM [3H]-CP 55,940, read-out: Competition Binding Assay CB1 Receptor Ki
[9] = CHO; read-out: cAMP Assay CB2 Receptor Emax
[10] = whole cells expressing CB2, 50 μM forskolin; read-out: cAMP Assay CB2 Receptor IC50
[11] = whole cells expressing CB1, 50 μM forskolin, read-out: cAMP Assay CB1 Receptor IC50
[12] = human CB2 CHO-K1 membranes, mean (95% confidence interval), n = 5
[13] = read-out: cAMP Assay CB2 Receptor IC50

T1 sequence (P21554 whole entry): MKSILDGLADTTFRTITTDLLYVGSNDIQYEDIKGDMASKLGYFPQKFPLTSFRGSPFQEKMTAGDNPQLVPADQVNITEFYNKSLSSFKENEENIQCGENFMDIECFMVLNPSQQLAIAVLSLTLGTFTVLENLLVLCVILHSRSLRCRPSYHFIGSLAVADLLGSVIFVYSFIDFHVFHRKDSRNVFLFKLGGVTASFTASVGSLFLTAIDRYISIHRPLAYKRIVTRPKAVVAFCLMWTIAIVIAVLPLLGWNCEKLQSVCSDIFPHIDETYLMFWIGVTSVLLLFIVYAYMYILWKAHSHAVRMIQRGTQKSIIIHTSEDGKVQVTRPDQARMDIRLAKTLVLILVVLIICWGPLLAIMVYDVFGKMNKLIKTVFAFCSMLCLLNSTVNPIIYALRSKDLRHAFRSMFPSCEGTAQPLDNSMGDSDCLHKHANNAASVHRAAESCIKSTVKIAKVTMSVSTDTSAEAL

CCCCCCC(C)(C)c1cc(OC)c([C@@H]2C=C(CO)[C@@H]3C[C@H]2C3(C)C)c(OC)c1 [HU-308, [(1R,2R,5R)-2-[2,6-dimethoxy-4-(2-methyloctan-2-yl)phenyl]-7,7-dimethyl-4-bicyclo[3.1.1]hept-3-enyl]methanol, reference compound]
Ki (human CB1 receptor [1]): > 50000 nM
Emax (human CB2 receptor [2]; [6]): 100%
IC50 (human CB1 receptor [3]): > 50000 nM
Emax (human CB2 receptor [4]): 100%

CCCCCCC(C)(C)c1cc(OC)c(C2C(=O)[C@]3(C)CC[C@H]2C3(C)C)c(OC)c1 (stereo partly drawn) [HU-926, (1R,4R)-3-(2,6-dimethoxy-4-(2-methyloctan-2-yl)phenyl)-1,7,7-trimethylbicyclo[2.2.1]heptan-2-one]
Ki (human CB2 receptor [5]; [7]): 106 nM
Ki (human CB1 receptor [1]; [8]): > 50000 nM
Emax (human CB2 receptor [2]; [9]): 100 ± 13%
IC50 (human CB2 receptor [2]; [10]): 321 nM
IC50 (human CB1 receptor [3]; [11]): > 50000 nM
EC50 (human CB2 receptor [4]; [12]): 185 nM
Emax (human CB2 receptor [4]): 51 ± 6%

CCCCCCC(C)(C)c1cc(OC)c(C2=C[C@@H]3CC[C@@]2(C(=O)O)C3(C)C)c(OC)c1 [HU-913, (1R,4S)-2-(2,6-dimethoxy-4-(2-methyloctan-2-yl)phenyl)-7,7-dimethylbicyclo[2.2.1]hept-2-ene-1-carboxylic acid]
Ki (human CB2 receptor [5]): 81.5 nM
Ki (human CB1 receptor [1]; [8]): > 50000 nM
Emax (human CB2 receptor [2]; [6]): 101 ± 11%
IC50 (human CB2 receptor [2]; [13]): 330 nM
IC50 (human CB1 receptor [3]; [11]): > 50000 nM
EC50 (human CB2 receptor [4]): 344 nM
Emax (human CB2 receptor [4]): 98 ± 3%

CCCCCCC(C)(C)c1cc(OC)c(C2=C[C@@H]3CC[C@@]2(CO)C3(C)C)c(OC)c1 [HU-909, (1R,4S)-(2-(2,6-dimethoxy-4-(2-methyloctan-2-yl)phenyl)-7,7-dimethylbicyclo[2.2.1]hept-2-en-1-yl)methanol]
Ki (human CB2 receptor [5]): 56.8 nM
Ki (human CB1 receptor [1]; [8]): 11700 nM
Emax (human CB2 receptor [2]; [6]): 95 ± 6%
IC50 (human CB2 receptor [2]; [13]): 425 nM
IC50 (human CB1 receptor [3]; [11]): > 50000 nM
EC50 (human CB2 receptor [4]): 136 nM
Emax (human CB2 receptor [4]): 76 ± 7%

CCCCCCC(C)(C)c1cc(OC)c(C2C(O)[C@]3(C)CC[C@H]2C3(C)C)c(OC)c1 (stereo partly drawn) [HU-928, (1R,4R)-3-(2,6-dimethoxy-4-(2-methyloctan-2-yl)phenyl)-1,7,7-trimethylbicyclo[2.2.1]heptan-2-ol]
Ki (human CB2 receptor [5]): 230 nM
Ki (human CB1 receptor [1]; [8]): > 50000 nM
Emax (human CB2 receptor [2]; [6]): 101 ± 11%
IC50 (human CB2 receptor [2]; [13]): 925 nM
IC50 (human CB1 receptor [3]; [11]): > 50000 nM
EC50 (human CB2 receptor [4]): 577 nM
Emax (human CB2 receptor [4]): 95 ± 5%

CCCCCCC(C)(C)c1cc(OC)c(C2=C[C@@H]3CC[C@@]2(C(=O)OC)C3(C)C)c(OC)c1 [HU-911, (1R,4S)-methyl-2-(2,6-dimethoxy-4-(2-methyloctan-2-yl)phenyl)-7,7-dimethylbicyclo[2.2.1]hept-2-ene-1-carboxylate]
Ki (human CB2 receptor [5]; [7]): 84.6 nM
Ki (human CB1 receptor [1]; [8]): > 50000 nM
Emax (human CB2 receptor [2]; [9]): 86 ± 9%
IC50 (human CB2 receptor [2]; [10]): 385 nM
IC50 (human CB1 receptor [3]; [11]): > 50000 nM
EC50 (human CB2 receptor [4]; [12]): 126 nM
Emax (human CB2 receptor [4]): 94 ± 4%

CCCCCc1cc(OC)c(C2=C[C@@H]3CC[C@@]2(CO)C3(C)C)c(OC)c1 [HU-969, (1R,4S)-(2-(2,6-dimethoxy-4-pentylphenyl)-7,7-dimethylbicyclo[2.2.1]hept-2-en-1-yl)methanol]
Ki (human CB2 receptor [5]): 6460 nM
Ki (human CB1 receptor [1]; [8]): > 50000 nM
IC50 (human CB2 receptor [2]): > 50000 nM
IC50 (human CB1 receptor [3]; [11]): > 50000 nM

CCCCCc1cc(OC)c(C2=C[C@H]3CC[C@]2(C(=O)OC)C3(C)C)c(OC)c1 [HU-972, (1S,4R)-methyl-2-(2,6-dimethoxy-4-pentylphenyl)-7,7-dimethylbicyclo[2.2.1]hept-2-ene-1-carboxylate]
Ki (human CB2 receptor [5]): 168 nM
Ki (human CB1 receptor [1]; [8]): > 50000 nM
Emax (human CB2 receptor [2]; [6]): 48 ± 5%
IC50 (human CB2 receptor [2]; [13]): 313 nM
IC50 (human CB1 receptor [3]; [11]): > 50000 nM
